Reference: US4258043A, “Pyrazino-carbazoles, process for the production thereof and pharmaceutical agents” (Cassella Aktiengesellschaft, priority 1979, dated 1981)
Counter-ions that a name gives are not always drawn.

Assays:
in vivo = format: in vivo; details: in vivo; ratio of LD50 to ED50 tetrabenazine antagonism (head is a drawing); read-out: Dosage [drawing 7]
Tetrabenazine = assay: animal or person; format: in vivo; details: read-out: ED50 Tetrabenazine Antagonism
LD50 (acute toxicity) = details: in vivo

SMILES	selectivity ratio (in vivo)	ED50 (Tetrabenazine)	LD50 (LD50 (acute toxicity))
Cc1ccc2c(c1)c1c3n2CCN=C3CCC1 [Example 1, 8-methyl-2,4,5,6-tetrahydro-1H-pyrazino[3,2,1-jk]carbazole]	18	4 mg/kg	72 mg/kg
COc1ccc2c(c1)c1c3n2CCN=C3CCC1 [Example 2, 8-methoxy-2,4,5,6-tetrahydro-1H-pyrazino[3,2,1-jk] carbazole-hydrochlorides]	18.5	2 mg/kg	37 mg/kg
Cc1ccc2c(c1)c1c3n2CCNC3CCC1.Cl (centres unmarked) [8-methyl-2,3,3a,4,5,6-hexahydro-1H-pyrazino[3,2,1-jk]carbazole-hydrochloride, reference compound]	–	14 mg/kg	122 mg/kg
